Test results taken from BigSolDB 2.1.

Compound: C[C@@H]1O[C@@H](O[C@H]2[C@H](Oc3cc(O)c4c(c3)O[C@H](c3ccc(O)cc3)CC4=O)O[C@H](CO)[C@@H](O)[C@@H]2O)[C@H](O)[C@H](O)[C@H]1O
- solubility (mole fraction) (in ethanol, 283.15 K): 2.26e-05
- solubility (mole fraction) (in ethanol, 288.15 K): 2.57e-05
- solubility (mole fraction) (in ethanol, 293.15 K): 3.45e-05
- solubility (mole fraction) (in ethanol, 298.15 K): 4.05e-05
- solubility (mole fraction) (in ethanol, 303.15 K): 5.17e-05
- solubility (mole fraction) (in ethanol, 308.15 K): 6.25e-05
- solubility (mole fraction) (in ethanol, 313.15 K): 7.96e-05
- solubility (mole fraction) (in ethanol, 318.15 K): 0.000102
- solubility (mole fraction) (in water, 283.15 K): 6.21e-07
- solubility (mole fraction) (in water, 288.15 K): 7.14e-07
- solubility (mole fraction) (in water, 293.15 K): 9.76e-07
- solubility (mole fraction) (in water, 298.15 K): 2.87e-06
- solubility (mole fraction) (in water, 303.15 K): 6.15e-06
- solubility (mole fraction) (in water, 308.15 K): 1.1e-05
- solubility (mole fraction) (in water, 313.15 K): 1.55e-05
- solubility (mole fraction) (in water, 318.15 K): 2.32e-05
